In patent publication US4910152A, “Method for binding opioid receptors” (priority 1986, dated 1990):
Entries after “also recorded” stand apart in the source; their conditions may differ. Read-outs that look alike come from different tables or passages of the source.

Tests used:
[1] = target: T1, guinea-pig ileum myenteric plexus-longitudinal muscle (Cavia porcellus, UniProt A0ACM8Q262); test: Guinea-pig ileum myenteric plexus-longitudinal muscle bioassay, single dose method, normorphine agonist (Example 12); type: cell-based; details: for Relative potency, bioassay G.P.I.: Ke of naloxone in m.v.d. taken to be 1; for reversal of antagonism by naloxone, G.p.i.: addition of naloxone; for duration of action in the G.p.i. (in words): compared with parent opioids; for t1/2 (half-time of recovery), guinea-pig M. plexus / Kb: geometric mean (95% confidence limits); for Kb: agonist normorphine, read-out: Ke (dissociation constant), guinea-pig M. plexus; for opioid antagonism, G.p.i.: G.p.i. bioassay
T1 construct: normorphine as agonist
T1 sequence (A0ACM8Q262 1-400): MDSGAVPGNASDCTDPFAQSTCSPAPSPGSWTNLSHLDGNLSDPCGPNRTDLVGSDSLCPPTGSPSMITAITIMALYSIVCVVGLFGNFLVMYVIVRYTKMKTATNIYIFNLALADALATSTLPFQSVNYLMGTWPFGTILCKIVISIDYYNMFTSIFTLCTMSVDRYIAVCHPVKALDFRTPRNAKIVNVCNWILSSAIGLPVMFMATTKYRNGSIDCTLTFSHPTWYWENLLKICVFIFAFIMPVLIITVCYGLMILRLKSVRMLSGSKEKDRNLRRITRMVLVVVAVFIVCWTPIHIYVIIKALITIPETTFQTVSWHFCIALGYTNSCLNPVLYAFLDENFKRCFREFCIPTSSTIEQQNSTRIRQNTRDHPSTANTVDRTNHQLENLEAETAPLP

mouse vas deferens = target: T2, mouse vas deferens (Mus musculus, UniProt P32300); test: Mouse vas deferens bioassay, single dose method, DALE agonist (Example 12); type: cell-based; details: for inhibition of DALE-induced contractions of the m.v.d.: 25-1000 nM, all doses tested; for Relative potency, bioassay M.V.D.: Ke of naloxone in m.v.d. taken to be 1; for t1/2 (half-time of recovery), mouse vas deferens: geometric mean (95% confidence limits); for reversal of antagonism by naloxone, m.v.d.: naloxone up to 10,000 nM; for M.V.D./G.P.I. (relative affinity): ratio of m.v.d. to G.p.i. relative potency; for inhibitory effect on the contractions (in words) / duration / reversibility of antagonism in the m.v.d. (in words): m.v.d.; for opioid antagonism, m.v.d.: m.v.d. bioassay
T2 construct: Each of several samples of mouse vas deferens (m.v.d.); tissue A-Lab, Solna, Sweden (mice); host or cells: vas deferens of male NMRI mice
T2 sequence (P32300 whole entry): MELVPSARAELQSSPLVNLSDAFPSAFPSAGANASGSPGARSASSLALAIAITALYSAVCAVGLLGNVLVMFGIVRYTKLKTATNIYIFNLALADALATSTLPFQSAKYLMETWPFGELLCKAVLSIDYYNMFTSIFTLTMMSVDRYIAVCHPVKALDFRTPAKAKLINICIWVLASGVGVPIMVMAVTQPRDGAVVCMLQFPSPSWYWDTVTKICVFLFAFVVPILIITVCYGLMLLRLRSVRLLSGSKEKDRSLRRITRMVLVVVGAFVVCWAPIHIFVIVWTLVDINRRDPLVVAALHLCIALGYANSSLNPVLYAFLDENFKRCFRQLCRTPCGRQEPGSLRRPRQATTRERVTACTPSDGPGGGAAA

[2] = target: T3, delta-type opioid binding sites (Rattus norvegicus, UniProt P33533); test: Delta-site binding, 1 nM [3H]-DALE with 30 nM DAGO, rat brain membranes; details: for Relative potency, binding assay Delta: Ki of naloxone in inhibiting 3H-DALE taken to be 1; for Relative affinity, delta: Ki^-1 x 100 / sum of Ki^-1 values; for delta affinity / selectivity (in words): delta-type opioid receptors
T3 construct: Rat brain membranes were prepared; from tissue; host or cells: rat brain membranes
T3 sequence (P33533 whole entry): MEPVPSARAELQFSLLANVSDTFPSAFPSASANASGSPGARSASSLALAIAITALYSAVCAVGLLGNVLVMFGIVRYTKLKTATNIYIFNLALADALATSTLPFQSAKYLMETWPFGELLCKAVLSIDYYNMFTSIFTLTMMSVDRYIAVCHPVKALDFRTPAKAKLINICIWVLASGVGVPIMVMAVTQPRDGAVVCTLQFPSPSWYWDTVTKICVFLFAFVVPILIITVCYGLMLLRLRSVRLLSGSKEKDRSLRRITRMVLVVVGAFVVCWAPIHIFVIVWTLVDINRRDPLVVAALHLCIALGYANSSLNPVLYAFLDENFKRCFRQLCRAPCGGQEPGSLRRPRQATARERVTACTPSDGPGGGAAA
Description: (§1) Rat brain membranes were prepared and binding assays performed as previously described by Neil, A. in "Detection and characterization of four opioid binding sites in the mouse brain," Acta Pharmacol. Tox. 56: 108-116 (1985).

[3] = target: T4, mu-type opioid binding sites (Rattus norvegicus, UniProt P33535); test: Mu-site binding, 0.2 nM [3H]-dihydromorphine, rat brain membranes; details: for Relative potency, binding assay Mu: Ki of naloxone in inhibiting 3H-DALE taken to be 1; for Relative affinity, mu: Ki^-1 x 100 / sum of Ki^-1 values; for Ki: [3H]-DHM, read-out: Ki, mu (inhibition of binding)
T4 construct: Rat brain membranes were prepared; from tissue; host or cells: rat brain membranes
T4 sequence (P33535 whole entry): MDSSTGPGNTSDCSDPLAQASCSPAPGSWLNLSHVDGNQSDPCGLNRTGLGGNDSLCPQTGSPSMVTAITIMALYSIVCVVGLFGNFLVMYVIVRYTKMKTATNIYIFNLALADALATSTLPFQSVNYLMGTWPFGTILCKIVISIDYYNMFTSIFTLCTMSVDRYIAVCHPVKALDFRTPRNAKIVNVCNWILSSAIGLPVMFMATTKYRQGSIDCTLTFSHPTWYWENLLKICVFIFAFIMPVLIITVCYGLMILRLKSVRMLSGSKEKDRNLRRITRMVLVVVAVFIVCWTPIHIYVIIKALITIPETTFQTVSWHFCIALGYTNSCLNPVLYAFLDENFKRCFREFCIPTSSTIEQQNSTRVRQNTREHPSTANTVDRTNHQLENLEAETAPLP
Description: as §1

[4] = target: T5, kappa-type opioid binding sites (Rattus norvegicus, UniProt P34975); test: Kappa-site binding, 1 nM [3H]-(±)-EKC with 200 nM DAGO and DADL, rat brain membranes; details: for Relative potency, binding assay Kappa: Ki of naloxone in inhibiting 3H-DALE taken to be 1; for Relative affinity, kappa: Ki^-1 x 100 / sum of Ki^-1 values
T5 construct: Rat brain membranes were prepared; from tissue; host or cells: rat brain membranes
T5 sequence (P34975 whole entry): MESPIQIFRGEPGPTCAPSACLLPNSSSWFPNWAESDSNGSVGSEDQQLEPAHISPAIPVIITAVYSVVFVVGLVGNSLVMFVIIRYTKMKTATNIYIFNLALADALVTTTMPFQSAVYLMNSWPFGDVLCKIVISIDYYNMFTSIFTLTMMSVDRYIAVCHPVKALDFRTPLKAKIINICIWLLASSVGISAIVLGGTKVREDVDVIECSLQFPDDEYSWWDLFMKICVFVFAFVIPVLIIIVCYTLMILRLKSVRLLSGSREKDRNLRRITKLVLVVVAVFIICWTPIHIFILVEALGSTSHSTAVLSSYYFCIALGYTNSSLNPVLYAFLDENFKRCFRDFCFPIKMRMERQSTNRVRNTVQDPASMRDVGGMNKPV
Description: as §1

[5] = target: T6, opioid receptors in rat brain membrane preparations (Rattus norvegicus, UniProt P33535)
T6 sequence (P33535 whole entry): as the sequence (P33535 whole entry) above
Description: (§2) The data was analyzed, using the program LIGAND of Munson and Rodbard.

[6] = target: T6, opioid receptors in rat brain membrane preparations; test: 3H-DHM displacement from rat brain membranes (Example 4 method); details: for Hill coefficient / binding activity in synaptosomal membranes (in words): 3H-DHM displacement; for binding activity in synaptosomal membranes (in words): rat brain synaptosomal membranes
Description: as §2

[7] = target: T6, opioid receptors in rat brain membrane preparations; test: biochemical
Description: as §2

opioid receptors = details: Hahn, Pasternak et al.; cited from earlier work
[8] = tested on: guinea pig ileum longitudinal muscle preparation; test: Electrically stimulated guinea pig ileum longitudinal muscle (Example 5); type: cell-based
Description: 6-FN was tested for activity on an electrically stimulated guinea pig ileum longitudinal muscle preparation. In this test, a specimen of guinea pig ileum was stretched between two wires in a nutrient solution (2.5 mil.) and stimulated supramaximally at 0.1 Hz. In the absence of opioid agonists and antagonists electrical stimulation of the muscle results in contraction.

[9] = target: opioid receptor sites (3H-DALE); test: Site selectivity displacement, 3H-DALE indicator (with cold DHM); type: binding; details: 0.43 nM cold DHM and 0.43 nM DALE*; determined graphically
Description: In FIG. 1 it will be noted that compounds which displace the two indicator ligands differently provide a curve which is convex towards the axis of the labeled indicator ligand which is less favorably displaced.

[10] = feeding induced by 2-deoxy-D-glucose; cited from earlier work

C=CCN1CC[C@]23c4c5ccc(O)c4O[C@H]2C(=NN=C2C=C4CC[C@@H]6[C@H](CC[C@]7(C)C(=NN=C8CC[C@@]9(O)[C@H]%10Cc%11ccc(O)c%12c%11[C@@]9(CCN%10CC=C)[C@H]8O%12)CC[C@@H]67)[C@@]4(C)CC2)CC[C@@]3(O)[C@H]1C5 [NAL-AD-NAL]
Relative potency, bioassay G.P.I. [1]: 8.9
reversal of antagonism by naloxone, G.p.i. [1]: Nor were the NAL-E or NAL-AD-NAL antagonisms in the G.p.i. reversed by naloxone
duration of action in the G.p.i. (in words) [1]: somewhat longer acting than their parent opioids
t1/2 (half-time of recovery), guinea-pig M. plexus [1]: 34 min
Kb [1]: 5.7 nM
Kb (mouse vas deferens): 37 nM
inhibition of DALE-induced contractions of the m.v.d. (mouse vas deferens): 20-50%
Relative potency, bioassay M.V.D. (mouse vas deferens): 1.4
t1/2 (half-time of recovery), mouse vas deferens (mouse vas deferens): 19 (14-24) min
reversal of antagonism by naloxone, m.v.d. (mouse vas deferens): not reversed by addition of naloxone
M.V.D./G.P.I. (relative affinity) (mouse vas deferens): 0.16
Relative potency, binding assay Delta [2]: 3.4
Relative affinity, delta [2]: 5
delta affinity / selectivity (in words) [2]: not to show a high delta affinity
Relative potency, binding assay Mu [3]: 18.0
Relative affinity, mu [3]: 78
Ki [3]: 1.6 nM
mu receptor affinity (in words) ([3]; compared with naloxone): mu receptor affinity on the order of naloxone
Relative potency, binding assay Kappa [4]: 0.19
Relative affinity, kappa [4]: 7

C=CCN1CC[C@]23c4c5ccc(O)c4O[C@H]2C(NC(=S)Nc2ccc4c(c2)C(=O)OC42c4ccc(O)cc4Oc4cc(O)ccc42)CC[C@@]3(O)[C@H]1C5 (single isomer, unassigned) [FAN, N-(1-N-allyl-14-hydroxynordihydro-6δ-morphinanyl)-N'-fluorosceinyl thiourea]
Kd [5]: 18.9 nM

C[C@]12CC[C@@H]3c4ccc(O)cc4CC[C@H]3[C@@H]1CCC2=NN [EH, estrone hydrazone, reference compound]
opioid antagonism, G.p.i. [1]: none of the steroids, EH, ADDH or 17-beta-estradiol, showed opioid antagonism
inhibitory effect on the contractions (in words) (mouse vas deferens): inhibitory effects of magnitudes similar to NAL-E and NAL-AD-NAL
opioid antagonism, m.v.d. (mouse vas deferens): none of the steroids, EH, ADDH or 17-beta-estradiol, showed opioid antagonism

C[C@]12CC[C@@H]3c4ccc(O)cc4CC[C@H]3[C@@H]1CC[C@@H]2O [17-beta-estradiol, reference compound]
opioid antagonism, G.p.i. [1]: none of the steroids, EH, ADDH or 17-beta-estradiol, showed opioid antagonism
inhibitory effect on the contractions (in words) (mouse vas deferens): no inhibitory effect on the contractions
opioid antagonism, m.v.d. (mouse vas deferens): none of the steroids, EH, ADDH or 17-beta-estradiol, showed opioid antagonism

C=CCN1CC[C@]23c4c5ccc(O)c4O[C@H]2C(=O)CC[C@@]3(O)[C@H]1C5 [naloxone, reference compound]
t1/2 (half-time of recovery), guinea-pig M. plexus [1]: 15 min

C=CCN1CC[C@]23c4c5ccc(O)c4O[C@H]2C(=NNC(=S)Nc2ccc(-c4c6ccc(=[N+](C)C)cc-6oc6cc(N(C)C)ccc46)c(C(=O)[O-])c2)CC[C@@]3(O)[C@H]1C5 [6-RN, 1-(N)-tetramethylrhodaminyl-B-naloxone Thiosemicarbazone]
Kd [5]: 5.3 nM
Hill coefficient [6]: 1.09
binding activity in synaptosomal membranes (in words) [6]: sufficient binding activity
IC50 ([6]; read-out: IC50 (concentration necessary for 50% displacement of 3H-DHM), rat brain synaptosomal plasma membranes, determined graphically): 12 nM

O=C1OC2(c3ccc(O)cc3Oc3cc(O)ccc32)c2ccc(NC(=S)NN=C3CC[C@@]4(O)[C@H]5Cc6ccc(O)c7c6[C@@]4(CCN5CC4CC4)[C@H]3O7)cc21 [6-FNX, 1-(N)-fluoresceinyl naltrexone thiosemicarbazone]
Hill coefficient [6]: 0.675
binding activity in synaptosomal membranes (in words) [6]: sufficient binding activity
Kd [7]: 2.6 nM

C[C@]12CCC(=NN)C=C1CC[C@@H]1[C@@H]2CC[C@]2(C)C(=NN)CC[C@@H]12 [ADDH, Δ^4 androstenedione-(3,17)-dihydrazone, reference compound]
opioid antagonism, G.p.i. [1]: none of the steroids, EH, ADDH or 17-beta-estradiol, showed opioid antagonism
inhibitory effect on the contractions (in words) (mouse vas deferens): inhibitory effects of magnitudes similar to NAL-E and NAL-AD-NAL
opioid antagonism, m.v.d. (mouse vas deferens): none of the steroids, EH, ADDH or 17-beta-estradiol, showed opioid antagonism

C=CCN1CC[C@]23c4c5ccc(O)c4O[C@H]2C(=NN=C2CC[C@@]4(O)[C@H]6Cc7ccc(O)c8c7[C@@]4(CCN6CC=C)[C@H]2O8)CC[C@@]3(O)[C@H]1C5 [naloxone azine]
persistence of binding (in words) (opioid receptors): long lasting effect

C=CCN1CC[C@]23c4c5ccc(O)c4O[C@H]2C(=NN=C2CC[C@H]4[C@@H]6CCc7cc(O)ccc7[C@H]6CC[C@]24C)CC[C@@]3(O)[C@H]1C5 [NAL-E]
Relative potency, bioassay G.P.I. [1]: 0.74
reversal of antagonism by naloxone, G.p.i. [1]: Nor were the NAL-E or NAL-AD-NAL antagonisms in the G.p.i. reversed by naloxone
selectivity in antagonizing normorphine (in words) ([1]; compared with naloxone, mu-rich tissue): far less selective
duration of action in the G.p.i. (in words) [1]: somewhat longer acting than their parent opioids
t1/2 (half-time of recovery), guinea-pig M. plexus [1]: 27 min
Kb [1]: 69 nM
fold less potent than naloxone, G.p.i. ([1]; less potent than naloxone): 22 fold
Kb (mouse vas deferens): 5.8 nM
inhibition of DALE-induced contractions of the m.v.d. (mouse vas deferens): 20-50%
Relative potency, bioassay M.V.D. (mouse vas deferens): 8.8
antagonist potency versus naloxone, m.v.d. (mouse vas deferens; antagonism of DALE effects): nine-fold more potent than naloxone
selectivity in antagonizing D-Ala2-Leu5-enkephalin effects (in words) (mouse vas deferens; compared with naloxone, delta-rich tissue): far more selective than naloxone
t1/2 (half-time of recovery), mouse vas deferens (mouse vas deferens): > 1000 min
duration / reversibility of antagonism in the m.v.d. (in words) (mouse vas deferens): very longlasting; also recorded: very long lasting effects
duration / reversibility of antagonism in the m.v.d. (in words) (mouse vas deferens; listed as NALE): almost irreversible in some observations
reversal of antagonism by naloxone, m.v.d. (mouse vas deferens): not reversed by addition of naloxone
M.V.D./G.P.I. (relative affinity) (mouse vas deferens): 12.0
Relative potency, binding assay Delta [2]: 7.4
Relative affinity, delta [2]: 70
delta affinity / selectivity (in words) [2]: delta selective; also recorded: long lasting and selectively and preferentially bind delta-type opioid receptors
delta affinity / selectivity (in words) ([2]; listed as Nal-E): far more delta selective than naloxone
Relative potency, binding assay Mu [3]: 1.7
Relative affinity, mu [3]: 16
Ki [3]: 17 nM
Relative potency, binding assay Kappa [4]: 4.4
Relative affinity, kappa [4]: 14

CN1CC[C@]23c4c5ccc(O)c4O[C@H]2C(=NNC(=S)Nc2ccc4c(c2)C(=O)OC42c4ccc(O)cc4Oc4cc(O)ccc42)CC[C@@]3(O)[C@H]1C5 [6-FO, 1-(N)-fluoresceinyl oxymorphone thiosemicarbazone]
Kd [5]: 12.8 nM
Hill coefficient [6]: 0.989
binding activity in synaptosomal membranes (in words) [6]: sufficient binding activity

Oc1ccc2c3c1O[C@H]1[C@@H](O)C=C[C@H]4[C@@H](C2)NCC[C@@]341 [normorphine, reference compound]
inhibition of contraction of the muscle (agonist effect) ([8]; 25 microliters, 10^-7 M): substantially inhibited contraction of the muscle

C=CCN1CC[C@]23c4c5ccc(O)c4O[C@H]2C(=NNC(=S)Nc2ccc4c(c2)C(=O)OC42c4ccc(O)cc4Oc4cc(O)ccc42)CC[C@@]3(O)[C@H]1C5 [6-FN, 1-(N)-Fluoresceinyl Naloxone Thiosemicarbazone]
IC50 [9]: 17 nM
Hill coefficient [6]: 0.671
binding activity in synaptosomal membranes (in words) [6]: sufficient binding activity
reversibility of 6-FN partial agonist activity by naloxone ([8]; 10^-6 M 6-FN, 10^-7 M naloxone): reversible with 10^-7 M naloxone
agonist activity of 6-FN in ileum ([8]; 10^-6 M (FIG. 2)): partial agonist activity; also recorded: slight agonist effect
inhibition of the agonist effect of normorphine ([8]; final 6-FN concentration 10^-7 M, added prior to normorphine): significantly inhibited the agonist effect of normorphine
antagonist effect relative to naloxone ([8]; inhibition of agonist effect of normorphine, compared with naloxone): ten times less effective
elimination of antagonist effect by washing ([8]; washing of the ileum specimen): did not readily eliminate the antagonist effect
Kd [7]: 11.5 nM

O=C1OC2(c3ccc(O)cc3Oc3cc(O)ccc32)c2ccc(NC(=S)NN=C(c3ccccc3)c3ccccc3)cc21 [6-FB, 1-(N)-fluoresceinyl benzophenone thiosemicarbazone, reference compound]
displacement of 3H-DHM (result in words) ([6]; 10^-6 M): inactive

O=C1CC[C@@]2(O)[C@H]3Cc4ccc(O)c5c4[C@@]2(CCN3CC2CC2)[C@H]1O5 [naltrexone]
suppression of feeding [10]: effective in suppressing feeding
